Test results reported in ChEMBL document CHEMBL1201862, “PubChem BioAssay data set” (2004).
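48-hour exposure; five concentrations; linearly interpolated endpoints. GI50: concentration for 50% inhibition of growth.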 Activity calls are given as the source filed them. No stated cut-off is given here; in the data, active = GI50 up to about 1.1 µM and inactive = higher.

Legend:
Test in all cases: NCI tumour cell line growth inhibition, 48 h
A549 = system: A549
CCRF-CEM = system: CCRF-CEM
HCC 2998 = system: HCC 2998
HL-60 = system: HL-60
HOP-62 = system: HOP-62
HOP-92 = system: HOP-92
IGROV-1 = system: IGROV-1
MDA-MB-231 = system: MDA-MB-231
MOLT-4 = system: MOLT-4
NCI-H226 = system: NCI-H226
OVCAR-4 = system: OVCAR-4
SK-MEL-5 = system: SK-MEL-5
SK-OV-3 = system: SK-OV-3
SNB-19 = system: SNB-19
SW-620 = system: SW-620
T47D = system: T47D
TK-10 = system: TK-10
UACC-62 = system: UACC-62
CAKI-1 = system: CAKI-1
MDA-N = system: MDA-N

SMILES | GI50 (A549) | GI50 (CCRF-CEM) | GI50 (HCC 2998) | GI50 (HL-60) | GI50 (HOP-62) | GI50 (HOP-92) | GI50 (IGROV-1) | GI50 (MDA-MB-231) | GI50 (MOLT-4) | GI50 (NCI-H226) | GI50 (OVCAR-4) | GI50 (SK-MEL-5) | GI50 (SK-OV-3) | GI50 (SNB-19) | GI50 (SW-620) | GI50 (T47D) | GI50 (TK-10) | GI50 (UACC-62) | GI50 (CAKI-1) | GI50 (MDA-N)
Fc1ccc(C2(CCCN3CCc4[nH]c5cc(F)ccc5c4C3)OCCO2)cc1 | 14.7 µM (inactive) | 11.8 µM (inactive) | 2.13 µM (inactive) | 10.5 µM (inactive) | 13 µM (inactive) | 2.99 µM (inactive) | 20.1 µM (inactive) | 18.7 µM (inactive) | 6.67 µM (inactive) | 19 µM (inactive) | 13.3 µM (inactive) | 10.9 µM (inactive) | 13.8 µM (inactive) | 11.1 µM (inactive) | 14.3 µM (inactive) | 13.5 µM (inactive) | 14.8 µM (inactive) | 13.7 µM (inactive) | – | –
FC1(F)ON2CCc3ccccc3C2[C@H]1c1ccccc1 (some centres undefined) | > 10 µM (inactive) | > 100 µM (inactive) | > 10 µM (inactive) | > 10 µM (inactive) | 90.4 µM (inactive) | – | > 10 µM (inactive) | 48.9 µM (inactive) | > 10 µM (inactive) | 35.8 µM (inactive) | > 10 µM (inactive) | > 10 µM (inactive) | > 10 µM (inactive) | > 10 µM (inactive) | > 10 µM (inactive) | 55.8 µM (inactive) | > 10 µM (inactive) | > 10 µM (inactive) | > 10 µM (inactive) | > 10 µM (inactive)
CC(=O)NC1C(OCc2ccccc2)OC(CO)C(O)C1OCC(=O)NC(C)C(=O)NC(CCC(=O)OCCNC(=O)c1cccc2cc3ccccc3nc12)C(N)=O (centres undefined) | 6.11 µM (inactive) | – | 18.4 µM (inactive) | 22.2 µM (inactive) | 24.3 µM (inactive) | 23.2 µM (inactive) | 17.8 µM (inactive) | – | 6.82 µM (inactive) | 18.5 µM (inactive) | 20.8 µM (inactive) | 17 µM (inactive) | 21.6 µM (inactive) | 31.4 µM (inactive) | 25.2 µM (inactive) | 22.5 µM (inactive) | 16.1 µM (inactive) | 15.7 µM (inactive) | 14.8 µM (inactive) | 26.4 µM (inactive)
CC(=O)OCC12CN(C#N)C3C4COC(CC41)C1(C(=O)N(C)c4ccccc41)C32 (centres undefined) | 28.4 µM (inactive) | 11.8 µM (inactive) | 28.2 µM (inactive) | 11.2 µM (inactive) | 24.6 µM (inactive) | 19.7 µM (inactive) | 24 µM (inactive) | 13.4 µM (inactive) | 7.48 µM (inactive) | 15.8 µM (inactive) | 16.1 µM (inactive) | 26.7 µM (inactive) | 34.4 µM (inactive) | – | 22 µM (inactive) | 18.8 µM (inactive) | 20.4 µM (inactive) | 22.6 µM (inactive) | 17.3 µM (inactive) | –
C1CCCCC2(CCCCCCCCC3(CCC1)OCCO3)OCCO2 | > 100 µM (inactive) | – | > 100 µM (inactive) | > 100 µM (inactive) | > 100 µM (inactive) | > 100 µM (inactive) | > 100 µM (inactive) | – | – | > 100 µM (inactive) | > 100 µM (inactive) | > 100 µM (inactive) | > 100 µM (inactive) | > 100 µM (inactive) | > 100 µM (inactive) | > 100 µM (inactive) | > 100 µM (inactive) | > 100 µM (inactive) | > 100 µM (inactive) | > 100 µM (inactive)
CCCCCCCCCCCCCC(=O)O.O=CC(O)C(O)C(OC1OC(CO)C(O)C(O)C1O)C(O)CO (centres undefined) | 80.2 µM (inactive) | – | – | 18.7 µM (inactive) | 44.8 µM (inactive) | 48.3 µM (inactive) | 26.3 µM (inactive) | 28.8 µM (inactive) | – | 30.5 µM (inactive) | > 100 µM (inactive) | 56.8 µM (inactive) | > 100 µM (inactive) | > 100 µM (inactive) | > 100 µM (inactive) | > 100 µM (inactive) | 37.7 µM (inactive) | 74.6 µM (inactive) | 71.6 µM (inactive) | –
Cc1ccn2c(CCc3nnc4cc(C)ccn34)nnc2c1 | > 100 µM (inactive) | – | – | 0.129 µM (active) | > 100 µM (inactive) | > 100 µM (inactive) | > 100 µM (inactive) | > 100 µM (inactive) | > 100 µM (inactive) | > 100 µM (inactive) | > 100 µM (inactive) | > 100 µM (inactive) | > 100 µM (inactive) | > 100 µM (inactive) | > 100 µM (inactive) | > 100 µM (inactive) | > 100 µM (inactive) | > 100 µM (inactive) | > 100 µM (inactive) | > 100 µM (inactive)
